Literature values, collected in patent publication US20110268774A1, “PREPARATION OF STEM CELLS WITH REPROGRAMMED CELL SIGNALLING, A METHOD OF PRODUCING THE PREPARATION AND A METHOD OF USE THEREOF” (priority 2008, published 2011).

Molecular target: Protein produced by HER2/neu gene (Homo sapiens, UniProt P04626)
Conditions: breast cancer

Sequence of Protein produced by HER2/neu gene (P04626 23-1255): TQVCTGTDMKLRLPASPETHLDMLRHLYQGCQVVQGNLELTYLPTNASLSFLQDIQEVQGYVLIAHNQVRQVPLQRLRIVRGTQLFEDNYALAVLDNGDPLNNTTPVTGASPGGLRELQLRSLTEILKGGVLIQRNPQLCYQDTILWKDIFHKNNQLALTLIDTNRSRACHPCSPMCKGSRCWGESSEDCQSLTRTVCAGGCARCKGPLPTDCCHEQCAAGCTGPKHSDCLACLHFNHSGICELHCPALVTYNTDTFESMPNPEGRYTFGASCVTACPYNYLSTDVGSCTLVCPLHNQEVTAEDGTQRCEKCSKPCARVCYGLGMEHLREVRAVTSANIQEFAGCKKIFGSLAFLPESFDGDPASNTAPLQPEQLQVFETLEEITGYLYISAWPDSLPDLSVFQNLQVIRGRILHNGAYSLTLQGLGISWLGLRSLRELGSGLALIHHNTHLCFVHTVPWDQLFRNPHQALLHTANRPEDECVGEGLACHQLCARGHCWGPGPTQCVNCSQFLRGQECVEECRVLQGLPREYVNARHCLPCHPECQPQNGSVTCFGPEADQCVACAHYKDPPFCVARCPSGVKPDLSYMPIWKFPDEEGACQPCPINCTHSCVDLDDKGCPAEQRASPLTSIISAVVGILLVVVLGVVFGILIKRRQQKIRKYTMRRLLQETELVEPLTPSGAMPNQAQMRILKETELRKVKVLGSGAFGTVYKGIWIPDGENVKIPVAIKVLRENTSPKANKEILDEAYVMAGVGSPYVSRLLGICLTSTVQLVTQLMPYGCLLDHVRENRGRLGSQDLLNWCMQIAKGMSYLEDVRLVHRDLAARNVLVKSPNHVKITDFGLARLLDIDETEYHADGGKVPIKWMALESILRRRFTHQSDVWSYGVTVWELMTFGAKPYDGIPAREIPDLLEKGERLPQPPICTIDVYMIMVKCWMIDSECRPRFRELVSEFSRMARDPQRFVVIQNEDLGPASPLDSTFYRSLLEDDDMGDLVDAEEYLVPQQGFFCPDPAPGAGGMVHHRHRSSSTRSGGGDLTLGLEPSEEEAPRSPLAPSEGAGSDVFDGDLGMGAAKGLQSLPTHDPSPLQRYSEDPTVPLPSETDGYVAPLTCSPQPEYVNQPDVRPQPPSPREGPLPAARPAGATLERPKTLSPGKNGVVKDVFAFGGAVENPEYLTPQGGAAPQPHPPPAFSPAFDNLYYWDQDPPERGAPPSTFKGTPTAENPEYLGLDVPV

CS(=O)(=O)CCNCc1ccc(-c2ccc3ncnc(Nc4ccc(OCc5cccc(F)c5)c(Cl)c4)c3c2)o1 [Tykerb]
recovery: 63% | CSC percentage in tumour (from 11%): 5%
